# Data taken from publication PMC9386805 (ACS Omega, 2022).
# Key:
# Test in all cases: MIC by microdilution
# Format in all cases: cell-based
# [1] = system: S. aureus subsp. aureus Rosenbach (ATCC 25923); details: Staphylococcus aureus, ATCC25923, read-out: MIC, SA
# [2] = system: P. aeruginosa (Schroeter) Migula (ATCC 27853); details: Pseudomonas aeruginosa, ATCC27853, read-out: MIC, PA
# [3] = system: E. coli (Migula) Castellani and Chalmers (ATCC 25922); details: Escherichia coli, ATCC25922, read-out: MIC, EC
# [4] = system: Salmonella enterica subsp. enterica serovar Typhimurium (ATCC 14028); details: ATCC14028|TYPHIMURIUM, read-out: MIC, ST
smiles,measurement,setting,value
CNC(C)C1CCC(N)C(OC2C(N)CC(N)C(OC3OCC(C)(O)C(NC)C3O)C2O)O1 (stereo not shown) [gentamicin],MIC,[1],4 µg/mL
same,MIC,[2],4 µg/mL
same,MIC,[3],8 µg/mL
same,MIC,[4],2 µg/mL
